Assay results as given in article PMC5588548, “Suramin Inhibits Osteoarthritic Cartilage Degradation by Increasing Extracellular Levels of Chondroprotective Tissue Inhibitor of Metalloproteinases 3” (Molecular Pharmacology, 2017).
Converted amounts (≈) assume the structure as drawn.

Experiments:
[1] = test system: porcine cartilage explants; assay: Aggrecan release from porcine cartilage explants (DMMB assay, neo-epitope immunoblotting); format: cell-based
Procedure: The effects of suramin on cartilage degradation were assessed using porcine or human cartilage explants. Explants were rested for 48 hours after dissection and were washed with serum-free DMEM. […]
Aggrecan degradation was analyzed by quantifying aggrecan fragments released into the conditioned media using the dimethylmethylene blue (DMMB) dye-binding assay ([Farndale et al., 1986]) (mean ± S.D., n = 3) and by immunoblotting with neo-epitope antibodies that recognize ADAMTS-cleaved but not intact aggrecan. For immunoblotting, conditioned media were deglycosylated by adding an equal volume of 200 mM sodium acetate and 50 mM Tris/HCl, pH 6.8, containing chondroitinase and β-endoglycosidase (0.05 U each; 18 hours, 37°C; Sigma-Aldrich). Aggrecan fragments were precipitated by adding five volumes of ice-cold acetone (18 hours, −20°C). After centrifugation (13,000 rpm, 10 minutes, 4°C), pellets were resuspended in SDS sample buffer, separated by electrophoresis on a 6% (v/v) polyacrylamide gel, and blotted onto polyvinylidene fluoride. Membranes were blocked with 5% (m/v) BSA in Tris-buffered saline and incubated with either a rabbit antibody that recognizes the AGEG neo-epitope generated by ADAMTS cleavage of the TAQE^1771∼^1772AGEG bond of aggrecan ([Troeberg et al., 2008]) or a mouse antibody that recognizes the ARGSV neo-epitope generated by ADAMTS cleavage of the NITEGE^373∼^374ARGSV bond ([Hughes et al., 1995]).

human TIMP-3 = biological target: T1, human TIMP-3 (Homo sapiens, UniProt P35625); assay: Solid-phase binding of TIMP-3 to immobilized suramin or analogs (ELISA); details: TIMP-3 0.4–50 nM
T1 construct: made in house; host or cells: human embryonic kidney 293 cells
T1 sequence (P35625 24-211): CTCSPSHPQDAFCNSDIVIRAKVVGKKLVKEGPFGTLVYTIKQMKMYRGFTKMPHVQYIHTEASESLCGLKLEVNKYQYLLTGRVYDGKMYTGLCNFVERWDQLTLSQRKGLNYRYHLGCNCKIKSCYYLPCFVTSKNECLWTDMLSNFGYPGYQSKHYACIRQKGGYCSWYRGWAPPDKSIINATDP
Procedure: Glycosaminoglycan-binding ELISA plates (BD Life Sciences, Swindon, UK) were coated with suramin or its analogs (10 µg/ml in Tris-buffered saline, 18 hours, 25°C) ([Mahoney et al., 2004]) and wells were blocked with 0.2% gelatin in PBS (1 hour, 37°C). Wells were washed in PBS containing 0.1% Tween 20 after this and every subsequent step. Purified FLAG-tagged human TIMP-3 (0.4–50 nM) in blocking solution was applied to wells (3 hours, 37°C), and binding was detected with anti-FLAG M2 primary antibody and anti-mouse horseradish peroxidase–conjugated secondary antibody. 3,3′,5,5′-Tetramethylbenzidine (Becton Dickinson, Swindon, UK) substrate was added, the reaction was stopped when appropriate by adding 2 N H2SO4, and absorbance at 450 nm was measured using a FLUOstar Omega microplate reader (BMG Labtech, Aylesbury, Buckinghamshire, UK). Data (mean ± S.E., n = 3 technical repeats) were analyzed using Prism 7.0b software (GraphPad Software, La Jolla, CA) and EC50 values determined using a one-site specific binding model. Flat planar dimensions of suramin analogs were estimated using ICM-Pro software (Molsoft LLC, San Diego, CA).

## Cc1ccc(C(=O)Nc2ccc(S(=O)(=O)O)c3cc(S(=O)(=O)O)cc(S(=O)(=O)O)c23)cc1NC(=O)c1cccc(NC(=O)Nc2cccc(C(=O)Nc3cc(C(=O)Nc4ccc(S(=O)(=O)O)c5cc(S(=O)(=O)O)cc(S(=O)(=O)O)c45)ccc3C)c2)c1 [suramin]
[1]; Sus scrofa, 48 h, porcine cartilage explants, retinoic acid 1 µM, 48 hours, DMMB assay, read-out: IC50 for inhibition of aggrecan release
  IC50: 98 ± 9 mg/L (≈ 75.5 µM)
[1]; porcine cartilage explants stimulated with IL-1 10 ng/ml or retinoic acid 1 µM, 48 hours, DMMB assay
  aggrecan release: effectively inhibited
[1]; porcine cartilage explants, retinoic acid 1 µM, 48 hours
  aggrecan degradation at ADAMTS-susceptible NITEGE373∼374ARGSV and TAQE1771∼1772AGEG sites (neo-epitope immunoblotting): inhibited
[1]; porcine cartilage, retinoic acid 1 µM, 30 hours, with anti–TIMP-3 antibody MAB973 50 µg/ml
  aggrecan degradation: unable to inhibit
[1]; porcine cartilage, retinoic acid 1 µM, 30 hours, with isotype control antibody 50 µg/ml
  aggrecan release: significantly inhibited
Human TIMP-3; plates coated with 10 µg/ml compound, one-site specific binding model, mean ± S.E., n = 3
  EC50: 1.9 ± 0.21 nM
Human TIMP-3; solid-phase binding assay, plates coated 10 µg/ml, read-out: KD value for TIMP-3 binding to immobilized compound
  Kd: 1.9 ± 0.2 nM
